From patent publication US6174875A, “Benzoquinoid ansamycins for the treatment of cardiac arrest and stroke” (priority 1999, dated 2001)

Key:
in vivo = conditions: mouse, iv, 60 mg/kg
Procedure: 17-allylaminogeldanamycin (17-AAG) (60 mg/kg) was administered to CD2F1 mice by intravenous (iv) injection. Brain levels of 17-AAG were determined at various time points after administration.

cultured neurons = conditions: cited from earlier work
[1] = tested on: hsp90-associated signaling molecules; conditions: other cultured cells; cited from earlier work
hsp70 in fibroblasts = conditions: cited from earlier work
[2] = tested on: Male Sprague-Dawley rats (asphyxial cardiac arrest); type: in vivo, rat
Source text: In rats, asphyxia produces circulatory arrest that can be reversed by mechanical ventilation and external chest compression (Katz et al. (1995) J. Cereb. Blood Flow Metab. 15:1032). […] Meaningful behavioral scores that predictable detect neurological deficits which closely mimic the types of deficits observed in patients that recover from cardiac arrest have been developed. Animal protocols were approved by the Institutional Animal Care and Use Committee of the University of Pittsburgh. Male Sprague-Dawley rats weighing 318±17 gm (Harlan, Indianapolis, Ind.) were anesthetized with 0.8% halothane in oxygen, endotracheally intubated using a 14 gauge angiocath, and mechanically ventilated using a Harvard rodent ventilator (0.9 cc/kg, 40 respirations/min). Blood pressure and arterial blood gases are monitored via a femoral arterial catheter (PE-50 tubing, IntraMedic), and drugs administered via a femoral venous catheter (PE-50). Tympanic temperature was maintained at 36.9±0.2° C. by manipulating an overhead 100 W lamp. After chemical paralysis with 2 mg/kg vecuronium and reducing the fraction of inspired oxygen to 0.21 (room air) mechanical ventilation was discontinued at end-expiration. Cardiac arrest (mean arterial pressure <10 mmHg) reliably occurred within 180 seconds. […]

[3] = tested on: glutathione levels in HT22 cells; assay: Cellular glutathione (GSH) levels in HT22 cells (monochlorobimane fluorescence); type: cell-based, mouse; conditions: 0.1 μg/ml GA, 5 mM glutamate, 2-8 hours (FIG. 3)
Procedure: Cellular glutathione (GSH) levels were measured in HT22 cells as described previously by Kane (1993) Science 262:1274. Briefly, HT22 cells were seeded onto 96-well plates at 20,000 cells per well and grown overnight. […] Monochlorobimane was added to 40 μM and following an additional 30 minutes of incubation, fluorescence at 460 nm in response to excitation at 395 mn was measured using a Perkin Elmer fluorescence plate reader. Values represent the average of triplicate experiments±S.D.

[4] = tested on: heat shock proteins in rat cardiomyocytes; conditions: cited from earlier work; for overexpression of heat shock proteins in cardiomyocytes: pretreatment
HT22 cells [5] = assay: MTT viability assay of glutamate-treated HT22 cells; type: cell-based, mouse
Procedure: (§1) HT22 cells were seeded on 60 mm tissue culture dishes at 300,000 cells per dish and grown overnight. Cells were then incubated in the presence of 5 mM glutamate for 20 hours. […] In order to provide a more accurate assessment of glutamate-induced oxidative toxicity, the ability of HT22 cells to metabolize 3-(4,5-[…]-2-yl)-2,5-diphenyl tetrazolium bromide (MTT) was assayed. The reduction of this dye by viable cells can easily be detected spectrophotometrically as described by Mosman (1983) J. Immunol. Methods 65:55 with reduced HT22 cell viability directly correlated with decreased metabolism of MTT (Shubert et al. (1992) Proc. Natl. Acad. Sci. USA 89:8264). HT22 cells were seeded on 96-well plates at 5,000 cells per well and grown for 12 hours. Cells were then treated with 2 mM, 5 mM or 10 mM concentrations of glutamate. […] After a total incubation period of 20 hours, cell viability was measured using an MTT assay as described by Li et al. (1997) Neuron 19:453. Briefly, 10 μl of MTT solution (5 mg/ml) was added to each well and cells incubated for an additional 4 hours. 100 μl of solubilization solution (50% dimethylformamide and 20% SDS, pH 4.8) was added and left on the cells 5 overnight, after which light absorption at 570 nm was measured. Values (% Viability) represent the average of quadruplicate (FIG. 1) or triplicate (FIG. 2) determinations±S.D. Similar results were obtained in a replicate experiment. Cell viability was expressed relative to control cells treated with GA or Herb alone.

raf-1 in rat brain = assay: Western blot of raf-1 in rat hippocampus after intracranial ventricular injection; type: in vivo; conditions: 20 μg geldanamycin icv, 12 or 24 hours (FIGS. 5A, 5B)
Procedure: (§2) Geldanamycin was delivered to rat brain by intracranial ventricular (icv) injection as follows. Rats were stereotaxically fitted with 4 mm×22 gauge guide cannulae directed at the lateral ventricle (AP-2.0, ML+2.0). […] The injector was removed and replaced with a stylet. At 12 or 24 hours after injection, hippocampi were isolated from which whole cell extracts were prepared and subjected to Western blot analysis to visualize raf- 1 and actin, or hsp70. Negative and positive control protein samples for hsp70 were prepared from untreated or heat shocked HT22 cells. Western blot analysis is depicted in FIGS. 5A and 5B in which the (-) and (+) lanes refer to the negative and positive control samples.

hsp70 in HT22 cells = assay: Western blot of inducible hsp70 expression in HT22 cells; type: cell-based, mouse
Procedure: (§3) Cells were harvested and lysed by sonication in 0.25 M Tris-HCl, pH 7.5 and lysates clarified by centrifugation at 14,000 rpm for 10 minutes at 4 ° C. Equivalent amounts of lysate protein (5 μg) were used for Western blot analysis as described by Xiao et al. (1997) Mol. Endocrinol. 11: 1365. The inducible form of the 70 kDa heat shock protein, hsp70, was uniquely detected using the SPA-810 monoclonal antibody (StressGen). GA induction of hsp70 was evident within 3 hours of GA treatment, was maximal upon 9 hours of GA treatment, and persisted for at least 12 hours in the presence of GA.

[6] = tested on: myogenic H9c2 cells and cardiomyocytes; conditions: pretreatment; cited from earlier work
hsp90 in HT22 cells = assay: Western blot of steady state hsp90 levels in HT22 cells; type: cell-based, mouse; conditions: 0.1 μg/ml GA
Procedure: as §3

HT22 cells [7] = assay: Glutamate-induced cytotoxicity in HT22 cells by phase contrast/light microscopy and trypan blue staining; type: cell-based, mouse
Procedure: as §1, with “overnight.” for “overnight. Cells were then incubated in the presence of 5 mM glutamate for 20 hours.”

HT22 cells [8] = assay: Internucleosomal DNA cleavage (apoptosis) in HT22 cells; type: cell-based, mouse
Procedure: HT22 cells were treated with 5 mM glutamate (Glu) for 20 hours. […] Controls included HT22 cells not treated with Glu or GA and cells treated with GA alone.

hsp70 in rat brain = assay: Western blot of hsp70 in rat hippocampus after intracranial ventricular injection; type: in vivo; conditions: 20 μg geldanamycin icv, 12 or 24 hours (FIGS. 5A, 5B)
Procedure: as §2

[9] = tested on: heat shock proteins in myogenic H9c2 cells; conditions: cited from earlier work; for overexpression of heat shock proteins in myogenic H9c2 cells: pretreatment

Compound: C=CCNC1=C2CC(C)CC(OC)C(O)C(C)C=C(C)C(OC(N)=O)C(OC)C=CC=C(C)C(=O)NC(=CC1=O)C2=O (stereo not drawn) [17-AAG, 17-allylaminogeldanamycin]
- concentration at 24 h (in vivo): 100 ng/g

Compound: CC(=O)Oc1ccccc1C(=O)O [aspirin]
- protection of cultured neurons from oxidative toxicity (cultured neurons): protect cultured neurons from this form of toxicity

Compound: COC1=C2C[C@@H](C)C[C@H](OC)[C@H](O)[C@@H](C)/C=C(\C)[C@H](OC(N)=O)[C@@H](OC)/C=C\C=C(/C)C(=O)NC(=CC1=O)C2=O [geldanamycin]
- degradation of hsp90-associated signaling molecules [1]: selective degradation of hsp90-associated signaling molecules
- induction of hsp70 expression in fibroblasts (hsp70 in fibroblasts): induce hsp70 expression
- neurological deficit scores vs vehicle ([2]; GA 1.0 mg/kg iv after return of spontaneous circulation, n=5, scored at 24, 48, 72 hours, Kruskal-Wallace Chi-square=6.54, p<0.05 (FIG. 4)): lower in rats treated with GA (n=5) than in rats treated with vehicle
- physiological variables during the resuscitation phase vs vehicle ([2]; GA 1.0 mg/kg iv, rats): did not differ between groups
- recovery of glutathione levels [3]: did not lead to recovery of glutathione levels
- induction of hsp70 expression in rat cardiomyocytes [4]: induce hsp70 expression
- overexpression of heat shock proteins in cardiomyocytes [4]: overexpression of heat shock proteins
- protection when GA is given following glutamate treatment (HT22 cells [5]; 0.1 μg/ml GA added after glutamate (FIG. 1)): retained its capacity to protect HT22 cells from oxidative stress
- protection against glutamate cytotoxicity (MTT viability) (HT22 cells [5]; 0.1 μg/ml GA, 10 mM glutamate, 20 h): less effective at this higher dose of glutamate
- protection against glutamate cytotoxicity (MTT viability) (HT22 cells [5]; 0.1 μg/ml GA, 2 and 5 mM glutamate, 20 h (FIG. 1)): effective protection
- time after glutamate exposure at which protection by GA was still apparent (HT22 cells [5]; 0.1 μg/ml GA, 2 or 5 mM glutamate): 6 h
- expression of raf-1 proto-oncogene in rat brain (raf-1 in rat brain): decreased expression of the raf-1 proto-oncogene
- hsp70 induction by GA in the presence of glutamate (hsp70 in HT22 cells; 0.1 μg/ml GA + 5 mM glutamate): still able to induce hsp70
- time GA-induced hsp70 levels are maintained in the presence of glutamate (hsp70 in HT22 cells; 0.1 μg/ml GA + 5 mM glutamate): up to 12 hours
- persistence of hsp70 induction in the presence of GA (hsp70 in HT22 cells; 0.1 μg/ml GA, HT22 cells): at least 12 hours
- time at which GA induction of hsp70 was evident (hsp70 in HT22 cells; 0.1 μg/ml GA, HT22 cells): ≤ 3 h
- time of maximal GA induction of hsp70 (hsp70 in HT22 cells; 0.1 μg/ml GA, HT22 cells): 9 h
- induction of hsp70 protein levels at higher doses of GA (hsp70 in HT22 cells; doses above 0.1 μg/ml, HT22 cells): not significantly enhanced at higher doses
- induction of hsp70 compared with heat shock (hsp70 in HT22 cells; vs 60 minute 42° C. heat shock, 0.1 μg/ml GA): as effective as a 60 minute 42 °C heat shock
- protection against simulated ischemia [6]: conferred protection against simulated ischemia
- steady state levels of hsp90 (hsp90 in HT22 cells): not affected
- protection from glutamate-induced oxidative toxicity (phase contrast) (HT22 cells [7]; 0.1 μg/ml GA, 5 mM glutamate, GA added at same time or 1, 2 or 6 hours after glutamate): led to protection from glutamate-induced oxidative toxicity
- HT22 cell growth rate, GA alone (HT22 cells [7]; GA alone): appeared to reduce HT22 cell growth rate
- cell death, GA alone (HT22 cells [7]; GA alone, assessed after 24 hours): did not lead to cell death
- internucleosomal DNA cleavage, GA alone (HT22 cells [8]; 0.1 μg/ml GA alone): not subjected to this type of characteristic genomic DNA cleavage
- block of glutamate-induced internucleosomal DNA cleavage (HT22 cells [8]; 0.1 μg/ml GA, 5 mM glutamate): able to block glutamate-induced internucleosomal DNA cleavage
- expression of hsp70 in rat brain (hsp70 in rat brain): increased expression of hsp70
- induction of hsp70 expression in a myogenic cell line [9]: induce hsp70 expression
- overexpression of heat shock proteins in myogenic H9c2 cells [9]: overexpression of heat shock proteins

Compound: COC1C=CC=C(C)C(=O)NC2=CC(=O)C=C(C2=O)C(OC)C(C)CC(OC)C(OC)C(C)C=C(C)C1OC(N)=O (stereo not drawn) [herbimycin A]
- induction of hsp70 expression in fibroblasts (hsp70 in fibroblasts): induce hsp70 expression
- induction of hsp70 expression in rat cardiomyocytes [4]: induce hsp70 expression
- overexpression of heat shock proteins in cardiomyocytes [4]: overexpression of heat shock proteins
- protection from glutamate-induced oxidative toxicity (MTT viability) (HT22 cells [5]; 0.5 μg/ml herbimycin A (FIG. 2)): protected HT22 cells from the glutamate-induced oxidative toxicity
- protection against simulated ischemia [6]: conferred protection against simulated ischemia
- induction of hsp70 expression in a myogenic cell line [9]: induce hsp70 expression
- overexpression of heat shock proteins in myogenic H9c2 cells [9]: overexpression of heat shock proteins

Compound: vitamin E
- protection of cultured neurons from oxidative toxicity (cultured neurons): protect cultured neurons from this form of toxicity
